Test results taken from US10450549B2, “Aryloxyphenoxypropionate tolerance in turfrgass species and use of AAD1 as a selectable marker” (Dow AgroSciences, LLC, priority 2004, dated 2019).

How the values were obtained:
[1] = target: T1, AAD1 (v1) (Sphingobium herbicidovorans, UniProt Q8KSC8); test: Colorimetric phenol detection assay of AAD1 (v1) activity (purified enzyme or E. coli extract); format: biochemical; settings: for activity of AAD1 (v1) E. coli extract on substrate: 0.5 mM substrate, 4 μl extract; for activity of purified AAD1 (v1) on substrate: 1 mM substrate, 1 or 10 μg enzyme; for A510, AAD1 (10x): 10 μg purified AAD1 (v1) per 0.16 ml assay
T1 construct: made in house; host or cells: E. coli BL-21 Star (DE3), plasmid pDAB3203

[2] = target: AAD2 (v1) (Bradyrhizobium diazoefficiens, UniProt Q89UC4); test: Colorimetric phenol assay of AAD2 (v1) E. coli extract / partially purified enzyme; format: biochemical, Bradyrhizobium japonicum; settings: for A510 AAD2: substrate 0.5 mM, 15 min, 25 mM MOPS pH 6.8, 3 μl AAD2 extract (42 μg protein)
[3] = tested on: wt ARBTH; test: In vitro plate test of herbicide cross resistance: wild-type Arabidopsis; format: in vivo, Arabidopsis thaliana; settings: 7 days
Description: (§1) The ability of AAD1 (v3) to provide resistance to other aryloxyphenoxyalkanoate herbicides in transgenic Arabidopsis was determined using a modified in vitro plate assay. Seeds from wild-type Arabidopsis thaliana as well as Arabidopsis thaliana containing the plant optimized AAD1 (v3) gene (T4 homozygous plants id=PAAD1.315.064) were sterilized by agitating for 10 min in a 50% bleach solution. These seeds were then rinsed four times with sterile water to remove the bleach.
(§2) Dose response assays utilized a nutrient media (see below) supplemented with various rates of test compounds. The test compounds were added to the heated media (55° C.) as concentrated solutions in DMSO. Control wells had the appropriate amount of DMSO without any additional compound. The final concentration of DMSO never exceeded 1% (v/v). After thorough mixing, a 6 mL aliquot of the warm media containing the appropriate concentration of compound was added to each well of a 6-well, flat bottom, polystyrene tissue culture tray (Falcon 353046, Becton Dickson and Company, Franklin Lakes, N.J.). After the media solidified, approximately 20 to 30 Arabidopsis seeds were applied on top of the solidified media and the remaining 2 mL of media was poured over the seeds. The plates were lightly agitated to disperse the seeds, covered and allowed to cool until the media had completely solidified. The plates were incubated for 7 days at 25° C. under continual fluorescent lighting (75 μE m^−2 s^−1). Nutrient Media Composition was as described in Example 2.2 and in Somerville and Orgen (1982).
(§3) Assessment of Growth Reduction. The apical portion of the Arabidopsis plants grown in the treated media was assessed visually relative to the apical portion of the plants grown in the media containing only DMSO. Values were recorded as % growth reduction. Assessments of root growth inhibition of the Arabidopsis plants grown in the treated media were achieved by carefully extracting the plants from the media and measuring the length of the root. These root lengths were then compared to the root length of the control plants to determine a % growth reduction. A minimum of five plants were assessed for each treatment. The values recorded are an average of all the plants assessed. The calculated concentration to reach 50% inhibition effect (I50) were determined for both root and shoots of wildtype and AAD1-transformed Arabidopsis. The ratios of resistant to sensitive biotypes are included in Table 19. A ratio>2 for both root and shoot measurements generally signifies significant resistance. The higher the ratio, the greater the level of resistance. […] The broad phenoxy auxin resistance is the first reported in planta.

[4] = tested on: PAAD1.315.064 ARBTH; test: In vitro plate test of herbicide cross resistance: homozygous T4 AAD1 (v3) Arabidopsis; format: in vivo, Arabidopsis thaliana; settings: for PAAD1.315.064 ARBTH root 150 / PAAD1.315.064 T3 ARBTH shoot 150: 7 days
Description: as §1, §2, §3

[5] = tested on: T4 Arabidopsis homozygous for AAD1 (v3) (line AAD1.01.315.076); test: Foliar-applied auxinic herbicides on homozygous T4 AAD1 (v3) Arabidopsis, % injury 14 DAT; format: in vivo, Arabidopsis thaliana; settings: AAD1.01.315.076.T4 homozygous AAD1 plants
Description: (§4) The ability of AAD1 (v3) to provide resistance to other aryloxyphenoxyalkanoate auxin herbicides in transgenic Arabidopsis was determined by foliar application of various substrates described in Example 6.8. T4 generation Arabidopsis seed, homozygous for AAD1 (v3) (line AAD1.01.315.076) was stratified, and sown into selection trays much like that of Arabidopsis (Example 6.4). A transformed-control line containing PAT and the insect resistance gene Cry1F was planted in a similar manner. Seedlings were transferred to individual 3-inch pots in the greenhouse. All plants were sprayed with the use of a track sprayer set at 187 L/ha. […] All applications were formulated in 200 mM Hepes buffer (pH 7.5). Each treatment was replicated 3-4 times. Plants were evaluated at 3 and 14 days after treatment and are averaged over two experiments.

[6] = tested on: transformed-control line containing PAT and Cry1F; test: Foliar-applied auxinic herbicides on control (PAT/Cry1F, wildtype) Arabidopsis, % injury 14 DAT; format: in vivo, Arabidopsis thaliana; settings: PatCry1f - Control
Description: as §4

[7] = substrate 0.5 mM, 15 min, 25 mM MOPS pH 6.8, 4 μl AAD1 (32 μg protein) extract
[8] = resistant to sensitive biotype, >2 signifies resistance
[9] = Table 4, substrate 1 mM, 1 μg purified AAD1 (v1) per 0.16 ml assay

CC(Oc1ccc(Oc2ncc(C(F)(F)F)cc2Cl)cc1)C(=O)O (stereo not drawn) [compound 8671]
A510, AAD1 [1, 7]: 0.12
A510 AAD2 [2]: 0

O=C(O)COc1cc(Cl)c(Cl)cc1Cl [2,4,5-T]
wt ARBTH root 150 [3]: <0.01 ppm
wt ARBTH shoot 150 [3]: 1.5 ppm
shoot ratio [4, 8]: 6.67
PAAD1.315.064 ARBTH root 150 [4]: <0.01 ppm
PAAD1.315.064 T3 ARBTH shoot 150 [4]: 10 ppm
Ave % Injury 14DAT ([5]; 8.75 g ae/ha foliar): 0%
Ave % Injury 14DAT ([5]; 17.5 g ae/ha foliar): 3%
Ave % Injury 14DAT ([5]; 35 g ae/ha foliar): 0%
Ave % Injury 14DAT ([5]; 70 g ae/ha foliar): 3%
Ave % Injury 14DAT ([5]; 140 g ae/ha foliar): 0%
Ave % Injury 14DAT ([5]; 280 g ae/ha foliar): 0%
Ave % Injury 14DAT ([5]; 560 g ae/ha foliar): 17%
Ave % Injury 14DAT ([5]; 1120 g ae/ha foliar): 3%
Ave % Injury 14DAT ([6]; 8.75 g ae/ha foliar): 0%
Ave % Injury 14DAT ([6]; 17.5 g ae/ha foliar): 20%
Ave % Injury 14DAT ([6]; 35 g ae/ha foliar): 43%
Ave % Injury 14DAT ([6]; 70 g ae/ha foliar): 85%
Ave % Injury 14DAT ([6]; 140 g ae/ha foliar): 95%
Ave % Injury 14DAT ([6]; 280 g ae/ha foliar): 98%
Ave % Injury 14DAT ([6]; 560 g ae/ha foliar): 100%
Ave % Injury 14DAT ([6]; 1120 g ae/ha foliar): 100%

C[C@H](Oc1ccc(Oc2ccc(C#N)cc2F)cc1)C(=O)O [(S)- cyhalofop]
activity of AAD1 (v1) E. coli extract on substrate ([1]; 15 min): no activity
activity of purified AAD1 (v1) on substrate [1]: Minimal activity
A510, AAD1 [1, 9]: 0.003
A510, AAD1 (10x) ([1]; Table 4, substrate 1 mM): 0.017
A510, AAD1 [1, 7]: 0
A510 AAD2 [2]: 0.15

CC(Oc1ccc(Oc2ccc(C#N)cc2F)cc1)C(=O)O (racemic) [(R,S)- cyhalofop]
A510, AAD1 [1, 9]: 0.215
A510, AAD1 (10x) ([1]; Table 4, substrate 1 mM): 1.815
A510, AAD1 [1, 7]: 0.12
A510 AAD2 [2]: 0.1

O=S(=O)(O)COc1ccc(Cl)cc1Cl [2,4-D sulfonate]
phenol produced by AAD1 (v1) relative to 2,4-D ([1]; another test): ~25%
AAD2 (v1) activity on substrate ([2]; E. coli extract): little or no detectable phenol

C[C@@H](Oc1ccc(Oc2nc3ccc(Cl)cc3o2)cc1)C(=O)O [(R)- fenoxaprop]
A510, AAD1 [1, 9]: 0.408
A510, AAD1 (10x) ([1]; Table 4, substrate 1 mM): 0.597
A510, AAD1 [1, 7]: 0.14
A510 AAD2 [2]: 0

O=C(O)COc1ccc(Oc2ncc(C(F)(F)F)cc2Cl)cc1 [haloxyfop- oxyacetate]
activity of purified AAD1 (v1) on substrate [1]: cleaved very slowly
A510, AAD1 [1, 9]: 0.004
A510, AAD1 (10x) ([1]; Table 4, substrate 1 mM): 0.053
A510, AAD1 [1, 7]: 0
A510 AAD2 [2]: 0.22

Cc1cc(Cl)ccc1OC(C)C(=O)O (racemic) [(R,S)-mecoprop]
activity of AAD1 (v1) E. coli extract on substrate ([1]; 15 min): cleaved
A510, AAD1 ([1]; Table 3, substrate 1 mM, 1 μg purified AAD1 (v1) per 0.16 ml assay, 15 min): 0.341
A510, AAD1 (10x) ([1]; Table 3, substrate 1 mM, 15 min): 2.085
wt ARBTH root 150 [3]: 0.01 ppm
wt ARBTH shoot 150 [3]: 2 ppm
root ratio [4, 8]: 150
shoot ratio [4, 8]: 12.5
PAAD1.315.064 ARBTH root 150 [4]: 1.5 ppm
PAAD1.315.064 T3 ARBTH shoot 150 [4]: 25 ppm
Ave % Injury 14DAT ([5]; 12.5 g ae/ha foliar): 3%
Ave % Injury 14DAT ([5]; 25 g ae/ha foliar): 0%
Ave % Injury 14DAT ([5]; 50 g ae/ha foliar): 0%
Ave % Injury 14DAT ([5]; 100 g ae/ha foliar): 0%
Ave % Injury 14DAT ([5]; 200 g ae/ha foliar): 3%
Ave % Injury 14DAT ([5]; 400 g ae/ha foliar): 0%
Ave % Injury 14DAT ([5]; 800 g ae/ha foliar): 0%
Ave % Injury 14DAT ([5]; 1600 g ae/ha foliar): 0%
Ave % Injury 14DAT ([6]; 12.5 g ae/ha foliar): 0%
Ave % Injury 14DAT ([6]; 25 g ae/ha foliar): 2%
Ave % Injury 14DAT ([6]; 50 g ae/ha foliar): 17%
Ave % Injury 14DAT ([6]; 100 g ae/ha foliar): 33%
Ave % Injury 14DAT ([6]; 200 g ae/ha foliar): 62%
Ave % Injury 14DAT ([6]; 400 g ae/ha foliar): 78%
Ave % Injury 14DAT ([6]; 800 g ae/ha foliar): 93%
Ave % Injury 14DAT ([6]; 1600 g ae/ha foliar): 100%

C[C@@H](Oc1ccc(Oc2cnc3cc(Cl)ccc3n2)cc1)C(=O)O [(R)- quizalofop]
A510, AAD1 [1, 9]: 0.43
A510, AAD1 (10x) ([1]; Table 4, substrate 1 mM): 2.1
kcat ([1]; purified AAD1 (v1)): 0.315 s⁻¹
Vmax ± SE ([1]; purified AAD1 (v1), Michaelis-Menten fit): 0.57 ± 0.03 μmol min^−1 mg^−1 AAD1
A510, AAD1 [1, 7]: 0.27
A510 AAD2 [2]: 0.01

C[C@@H](Oc1ccc(Oc2ccc(C#N)cc2F)cc1)C(=O)O [(R)- cyhalofop]
A510, AAD1 [1, 9]: 0.222
A510, AAD1 (10x) ([1]; Table 4, substrate 1 mM): 1.989
A510, AAD1 [1, 7]: 0.14
A510 AAD2 [2]: 0

CC(Oc1ccc(Oc2ncc(C(F)(F)F)cc2Cl)cc1)C(=O)O (racemic) [haloxyfop]
A510, AAD1 [1, 7]: 0.1
A510 AAD2 [2]: 0.3
